According to patent publication US4767765A, “N-substituted-N-[3-(1,2,4-triazolo-[4,3-b]pyridazin-6-yl )phenyl]alkanamides, carbamates and ureas” (American Cyanamid Company, priority 1987, dated 1988):

How the values were obtained:
[1] = system: Brain-Specific Receptors of Rats; experiment: Inhibition of the binding of 3H-benzodiazepine to brain-specific receptors of rats; design: species or system rat (Wistar); settings: 3H-diazepam 1.5 nM or 3H-flunitrazepam 1.0 nM; rat cortex P2 fraction, pH 7.4, 30 minutes in ice; test concentration not given
[2] = system: Clonic Seizures Caused by Pentylenetetrazole in Rats; experiment: Protection against clonic seizures caused by pentylenetetrazole in rats; assay type: in vivo; settings: Rattus norvegicus, oral or i.p., pentylenetetrazole 23 mg/kg i.v. at 30 or 60 minutes, read-out: % of Rats Protected
Procedure: The antianxiety and anticonvulsant properties of the novel compounds of the present invention were established in a test which indicates both anxiolytic and antiepileptic activity by the measure of protection from convulsions resulting from the administration of pentylenetetrazole. Single or graded dose levels of the test compounds were administered orally or intraperitoneally in a 2% starch vehicle, containing 0.5% v/v polyethylene glycol and one drop of Polysorbate 80 to groups of at least 4 rats. At 30 or 60 minutes, the rats were treated intravenously with pentylenetetrazole at a dose of 23 mg/kg of body wieght. This dose is estimated to cause clonic seizures in 99% of unprotected rats. It has been reported [R. T. Hill and D. H. Tedeschi, "Animal Testing and Screening Procedures in Evaluating Psychotropic Drugs" in An Introduction to Psychopharmacology, Eds. R. R. Rech and K. E. Moore, Raven Press, New York, pp 237-288 (1971,] that there is a high degree of correlation between antagonism of pentylenetetrazole seizures in rats and antianxiety and anticonvulsant effects in higher warm-blooded animals. The results of this test on representative compounds of this invention are shown in Table I.

[3] = system: Nonconditioned Passive Avoidance in Rats; experiment: Nonconditioned passive avoidance test in rats (conflict procedure); assay type: in vivo, rat (Wistar); design: key: Active: considered active if the number of shocks received by the test group is significantly higher than the control group by the Mann-Witney U test; settings: oral or i.p., 30 or 60 minutes
Procedure: Another test which has been used to assess anti-anxiety effects is a non-conditioned passive avoidance procedure described by J. R. Vogel, B. Beer and D. E. Clody, "A Simple and Reliable Conflict Procedure for Testing Anti-anxiety Agents", Psychopharmacologia, 21, 1-7 (1971). A conflict situation is induced in rats by a modification of this method.
Groups of 6 naive, Wistar strain rats, weighing 200-240 g each were deprived of water for 48 hours and food for 24 hours. The test compounds were administered in single or graded, oral or intraperitoneal doses, suspended in a 2% starch vehicle containing 0.5% v/v polyethylene glycol and one drop of polysorbate 80. Control animals received the vehicle alone. At 30 or 60 minutes each rat was placed in an individual plexiglass chamber. Water was available ad libitum from a tap located in the rear of the chamber. A 0.7 milliampere DC shocking current was established between the stainless steel grid floor and the tap. After 20 licks of non-shocked drinking, a shock was delivered for 2 seconds and then further shocks were delivered on a ratio of one shock for 2 seconds for every 20 licks. This was continued for a total of 3 minutes. The number of shocks taken by each rat during the 3 minute interval was recorded and compared to a control group. […]

Cc1nnc2ccc(-c3cccc(NC(=O)N(C)C)c3)nn12 [N,N-Dimethyl-N'-[3-(3-methyl-1,2,4-triazolo[4,3-b]pyridazin-6-yl)phenyl]urea]
% Inhibition [1]: 10%

C=CCN(C(C)=O)c1cccc(-c2ccc3nncn3n2)c1 [N-2-Propenyl-N-[3-(1,2,4-triazolo[4,3-b]pyridazin-6-yl)phenyl]acetamide]
% Inhibition [1]: 68%

COC(=O)Nc1cccc(-c2ccc3nncn3n2)c1 [[3-(1,2,4-Triazolo[4,3-b]pyridazin-6-yl)phenyl]carbamic acid, methyl ester]
% Inhibition [1]: 18%

C#CCN(C(C)=O)c1cccc(-c2ccc3nnc(C)n3n2)c1 [N-[3-(3-Methyl-1,2,4-triazolo[4,3b]pyridazin-6-yl)phenyl]-N-2-propynylacetamide]
responders at 3.1 mg/kg [2]: 100% | Results (nonconditioned passive avoidance) ([3]; dose 1.5 mg/kg): Active | % Inhibition [1]: 90%

CCC(=O)Nc1cccc(-c2ccc3nnc(C)n3n2)c1 [N-[3-(3-Methyl-1,2,4-triazolo[4,3-b]pyridazin-6-yl)phenyl]propanamide]
% Inhibition [1]: 56%

CCN(C(C)=O)c1cccc(-c2ccc3nncn3n2)c1 [N-Ethyl-N-[3-(1,2,4-triazolo[4,3-b]pyridazin-6-yl)phenyl]acetamide]
responders at 25 mg/kg [2]: 100% | Results (nonconditioned passive avoidance) ([3]; dose 12.5 mg/kg): Active | % Inhibition [1]: 78%

CC(=O)N(C)c1cccc(-c2ccc3nncn3n2)c1 [N-Methyl-N-[3-(1,2,4-triazolo[4,3-b]pyridazin-6-yl)phenyl]acetamide]
responders at 25 mg/kg [2]: 50% | Results (nonconditioned passive avoidance) ([3]; dose 12.5 mg/kg): Active | % Inhibition [1]: 45%

CC(=O)N(CC1CC1)c1cccc(-c2ccc3nnc(C)n3n2)c1 [N-(Cyclopropylmethyl)-N-[3-(3-methyl-1,2,4-triazolo[4,3-b]pyridazin-6-yl)phenyl]acetamide]
responders at 12.5 mg/kg [2]: 75% | Results (nonconditioned passive avoidance) ([3]; dose 6.2 mg/kg): Active | % Inhibition [1]: 93%

CCN(C(C)=O)c1cccc(-c2ccc3nnc(C)n3n2)c1 [N-Ethyl-N-[3-(3-methyl-1,2,4-triazolo[4,3-b]pyridazin-6-yl)phenyl]acetamide]
responders at 12.5 mg/kg [2]: 100% | Results (nonconditioned passive avoidance) ([3]; dose 0.8 mg/kg): Active | % Inhibition [1]: 90%

CC(=O)N(C)c1cccc(-c2ccc3nnc(C)n3n2)c1 [N-Methyl-N-[3-(3-methyl-1,2,4-triazolo[4,3-b]pyridazin-6-yl)phenyl]acetamid]
responders at 6 mg/kg ([2]; dose 6.0 mg/kg): 100% | Results (nonconditioned passive avoidance) ([3]; dose 3.1 mg/kg): Active | % Inhibition [1]: 89%

CCC(=O)N(CC)c1cccc(-c2ccc3nnc(C)n3n2)c1 [N-Ethyl-N-[3-(3-methyl-1,2,4-triazolo[4,3-b]pyridazin-6-yl)phenyl]propanamide]
responders at 3.1 mg/kg [2]: 75% | Results (nonconditioned passive avoidance) ([3]; dose 3.1 mg/kg): Active | % Inhibition [1]: 95%

C=CCN(C(C)=O)c1cccc(-c2ccc3nnc(C)n3n2)c1 [N-[3-(3-Methyl-1,2,4-triazolo[4,3-b]pyridazin-6-yl)phenyl]-N-2-propenylacetamide]
responders at 6.25 mg/kg ([2]; dose 6.25 mg/kg): 100% | Results (nonconditioned passive avoidance) ([3]; dose 25 mg/kg): Active | % Inhibition [1]: 96%

Cc1nnc2ccc(-c3cccc(N(C)C(=O)N(C)C)c3)nn12 [N,N,N'-Trimethyl-N'-[3-(3-methyl-1,2,4-triazolo[4,3-b]pyridazin-6-yl)phenyl]urea]
responders at 25 mg/kg [2]: 50% | Results (nonconditioned passive avoidance) ([3]; dose 25 mg/kg): Active

CCN(C(C)=O)c1cccc(-c2ccc3nnc(N)n3n2)c1 [N-Ethyl-N-[3-(3-amino-1,2,4-triazolo[4,3-b]pyridazin-6-yl)phenyl]acetamide]
% Inhibition [1]: 90%

COC(=O)Nc1cccc(-c2ccc3nnc(C)n3n2)c1 [[3-(3-Methyl-1,2,4-triazolo[4,3-b]pyridazin-6-yl)phenyl]carbamic acid, methyl ester]
Results (nonconditioned passive avoidance) ([3]; dose 25 mg/kg): Active | % Inhibition [1]: 18%

CCC(=O)N(C)c1cccc(-c2ccc3nnc(C)n3n2)c1 [N-Methyl-N-[3-(3-methyl-1,2,4-triazolo[4,3-b]pyridazin-6-yl)phenyl]propanamide]
responders at 12.5 mg/kg [2]: 25% | Results (nonconditioned passive avoidance) ([3]; dose 3.1 mg/kg): Active | % Inhibition [1]: 89%

CCN(C(=O)OC)c1cccc(-c2ccc3nnc(C)n3n2)c1 [Ethyl[3-(3-methyl-1,2,4-triazolo[4,3-b]pyridazin-6-yl)phenyl]carbamic acid, methyl ester]
responders at 3.1 mg/kg [2]: 75% | Results (nonconditioned passive avoidance) ([3]; dose 1.5 mg/kg): Active | % Inhibition [1]: 60%

CCC(=O)N(C)c1cccc(-c2ccc3nncn3n2)c1 [N-Methyl-N-[3-(1,2,4-triazolo[4,3-b]pyridazin-6-yl)phenyl]propanamide]
responders at 25 mg/kg [2]: 100% | Results (nonconditioned passive avoidance) ([3]; dose 25 mg/kg): Active | % Inhibition [1]: 56%

C#CCN(C(C)=O)c1cccc(-c2ccc3nncn3n2)c1 [N-2-Propynyl-N-[3-(1,2,4-triazolo[4,3-b]pyridazin-6-yl)phenyl]acetamide]
% Inhibition [1]: 49%

CCCN(C(C)=O)c1cccc(-c2ccc3nnc(C)n3n2)c1 [N-[3-(3-Methyl-1,2,4-triazolo[4,3-b]pyridazin-6-yl)phenyl]-N-propylacetamide]
% Inhibition [1]: 93%

CCN(C(=O)OC)c1cccc(-c2ccc3nncn3n2)c1 [Ethyl[3-(1,2,4-triazolo[4,3-b]pyridazin-6-yl)phenyl]carbamic acid, methyl ester]
responders at 25 mg/kg [2]: 100% | Results (nonconditioned passive avoidance) ([3]; dose 25 mg/kg): Active | % Inhibition [1]: 78%

CCN(C(=O)N(C)C)c1cccc(-c2ccc3nnc(C)n3n2)c1 [N-Ethyl-N',N'-dimethyl-N-[(3-methyl-1,2,4-triazolo[4,3-b]pyridazin-6-yl)phenyl]urea]
responders at 12.5 mg/kg [2]: 75% | Results (nonconditioned passive avoidance) ([3]; dose 3.1 mg/kg): Active

COC(=O)N(C)c1cccc(-c2ccc3nncn3n2)c1 [Methyl-[3-(1,2,4-triazolo[4,3-b]pyridazin 6-yl)phenyl]carbamic acid, methyl ester]
responders at 25 mg/kg [2]: 25% | % Inhibition [1]: 62%

CCC(=O)N(CC)c1cccc(-c2ccc3nncn3n2)c1 [N-Ethyl-N-[3-(1,2,4-triazolo[4,3-b]pyridazin-6-yl)phenyl]propanamide]
responders at 3.1 mg/kg [2]: 50% | Results (nonconditioned passive avoidance) ([3]; dose 3.1 mg/kg): Active | % Inhibition [1]: 84%

COC(=O)N(C)c1cccc(-c2ccc3nnc(C)n3n2)c1 [Methyl[3-(3-methyl-1,2,4-triazolo[4,3-b]pyridazin-6-yl)phenyl]carbamic acid, methyl ester]
responders at 25 mg/kg [2]: 100% | Results (nonconditioned passive avoidance) ([3]; dose 3.1 mg/kg): Active | % Inhibition [1]: 62%

CC(=O)N(C)c1cccc(-c2ccc3nnc(N)n3n2)c1 [N-Methyl-N-[3-(3-amino-1,2,4-triazolo[4,3-b]pyridazin-6-yl)phenyl]acetamide]
% Inhibition [1]: 58%
